Source: paper PMC9281440, “In Vivo Distribution and Therapeutic Efficacy of Radioiodine-Labeled pH-Low Insertion Peptide Variant 3 in a Mouse Model of Breast Cancer” (Molecular Imaging, 2022)
Values joined by “and” are separate entries in the source; they are usually repeats but may differ in a detail not shown here. Equal entries are not always repeated. Where two headings read alike, the source gives them in different places. Peptide text beside a SMILES is read from it.

Key:
[1] = tested on: SK-BR-3 tumor-bearing nude mice; experiment: Micro-SPECT/CT imaging and distribution of 125I-labeled pHLIPs; type: in vivo, mouse
Method: (§1) Five-week-old female athymic BALB/c nude mice (Shanghai Slaccas Experiment Animal Corp., Shanghai, China) were used in our study. Mouse xenograft models of MDA-MB-231, 4T1, and SK-BR-3 cells were produced by the subcutaneous injection of 5 × 10^6 cells (suspended in 150 μL PBS) into the right axilla of each mouse. The mice were used in subsequent experiments when tumor diameter reached 0.5-0.9 cm. The study protocol was approved by the institutional review board and by the Experimental Animal Center of Ruijin Hospital affiliated to the School of Medicine of Shanghai Jiao Tong University.
(§2) Three days before micro-SPECT/CT imaging, 300 μL of 1% Kl solution was administered to mice by oral gavage once a day, and 0.1% Kl was added into the drinking water to block thyroid gland activity. Mice-bearing MDA-MB-231, 4T1, or SK-BR-3 tumors were intravenously injected with 3.7 MBq of ^125I-WT-pHLIP or ^125I-Var3-pHLIP. Each group contained four mice. The mice were anesthetized by isoflurane inhalation, placed in the prone position, and scanned using a four-head SPECT/CT system (U-SPECT/CT, MI-Lab, Netherlands) and dedicated multipinhole apertures with a diameter of 1.5 mm at 1, 2, 4, 24, and 48 h after injection of ^125I-labeled peptides. CT images were acquired after static SPECT imaging (10 min/frame). The images were reconstructed using U-SPECT REC software and analyzed using PMOD software version 3.9 (Switzerland). Regions of interest (ROIs) were drawn in the tumors and organs, including the brain, heart, liver, lungs, kidneys, intestine, and bladder, at various time points. The radioactivity per gram (ID%/g) in the ROIs was measured to obtain the dynamic tumor-to-background ratio (TBR, muscle tissue was used as the background) and the in vivo distribution and kinetics of ^125I-WT-pHLIP and ^125I-Var3-pHLIP in the xenograft models of BC.

[2] = as above; type: in vivo, mouse; conditions: female, mouse, total radioactivity, 3.7 MBq iv, micro-SPECT/CT ROI, mean ± SD, n = 4; for tissue uptake at 1 h: 1 h pi; for tissue uptake at 2 h: 2 h pi; for tissue uptake at 4 h: 4 h pi; for tissue uptake at 24 h: 24 h pi; for tissue uptake at 48 h: 48 h pi
Method: as §1, §2

[3] = BALB/c nude, bladder, MDA-MB-231 tumor-bearing nude mice, read-out: Distribution, Bladder
[4] = BALB/c nude, intestine, MDA-MB-231 tumor-bearing nude mice, read-out: Distribution, Intestine
[5] = BALB/c nude, muscle, MDA-MB-231 tumor-bearing nude mice, read-out: Distribution, Muscle
[6] = BALB/c nude, MDA-MB-231 tumor-bearing nude mice, read-out: Distribution, Tumor
[7] = BALB/c nude, SK-BR-3 tumor-bearing nude mice, read-out: Distribution, Tumor
[8] = athymic BALB/c nude, bladder, SK-BR-3 tumor-bearing nude mice, read-out: Distribution, Bladder
[9] = athymic BALB/c nude, brain, MDA-MB-231 tumor-bearing nude mice, read-out: Distribution, Brain
[10] = athymic BALB/c nude, brain, SK-BR-3 tumor-bearing nude mice, read-out: Distribution, Brain
[11] = athymic BALB/c nude, heart, MDA-MB-231 tumor-bearing nude mice, read-out: Distribution, Heart
[12] = athymic BALB/c nude, heart, SK-BR-3 tumor-bearing nude mice, read-out: Distribution, Heart

Distribution, Tumor ([1]; SK-BR-3 tumor-bearing nude mice, 2 h pi, 3.7 MBq iv, micro-SPECT/CT ROI, mean ± SD, n = 4): 2.93 ± 0.71 %ID/g and 2.93 ± 0.70 %ID/g | time after injection at which radioactive count in xenografts peaked ([1]; SK-BR-3 xenografts): 2 h | tissue uptake at 1 h [2, 3]: 20.6 ± 5.71 %ID/g | tissue uptake at 2 h [2, 3]: 24.8 ± 3.51 %ID/g | tissue uptake at 4 h [2, 3]: 31.6 ± 15.9 %ID/g | tissue uptake at 24 h [2, 3]: 2.14 ± 0.88 %ID/g | tissue uptake at 48 h [2, 3]: 0.45 ± 0.14 %ID/g | tissue uptake at 1 h ([2]; BALB/c nude, brain, MDA-MB-231 tumor-bearing nude mice, read-out: Distribution, Brain): 1.02 ± 0.08 %ID/g | tissue uptake at 1 h [2, 4]: 2.59 ± 0.5 %ID/g | tissue uptake at 2 h [2, 4]: 3.18 ± 0.35 %ID/g | tissue uptake at 4 h [2, 4]: 2.12 ± 0.33 %ID/g | tissue uptake at 24 h [2, 4]: 0.2 ± 0.09 %ID/g | tissue uptake at 48 h [2, 4]: 0.1 ± 0.06 %ID/g | tissue uptake at 1 h [2, 5]: 1.12 ± 0.28 %ID/g | tissue uptake at 2 h [2, 5]: 0.96 ± 0.32 %ID/g | tissue uptake at 4 h [2, 5]: 0.67 ± 0.21 %ID/g | tissue uptake at 24 h [2, 5]: 0.09 ± 0.03 %ID/g | tissue uptake at 48 h [2, 5]: 0.04 ± 0.01 %ID/g | tissue uptake at 1 h [2, 6]: 3.16 ± 0.67 %ID/g | tissue uptake at 2 h [2, 6]: 3.76 ± 0.37 %ID/g | tissue uptake at 4 h [2, 6]: 3.09 ± 0.44 %ID/g | tissue uptake at 24 h [2, 6]: 0.47 ± 0.12 %ID/g | tissue uptake at 48 h [2, 6]: 0.22 ± 0.07 %ID/g | tissue uptake at 2 h [2, 7]: 2.94 ± 0.71 %ID/g | tissue uptake at 4 h [2, 7]: 2.45 ± 0.32 %ID/g | tissue uptake at 24 h [2, 7]: 0.26 ± 0.06 %ID/g | tissue uptake at 48 h [2, 7]: 0.18 ± 0.06 %ID/g | tissue uptake at 1 h [2, 8]: 18.2 ± 4.14 %ID/g | tissue uptake at 2 h [2, 8]: 18.7 ± 15.6 %ID/g | tissue uptake at 4 h [2, 8]: 23.4 ± 6.56 %ID/g | tissue uptake at 24 h [2, 8]: 2.44 ± 2.14 %ID/g | tissue uptake at 48 h [2, 8]: 0.21 ± 0.21 %ID/g | tissue uptake at 2 h [2, 9]: 1.13 ± 0.12 %ID/g | tissue uptake at 4 h [2, 9]: 0.75 ± 0.27 %ID/g | tissue uptake at 24 h [2, 9]: 0.13 ± 0.07 %ID/g | tissue uptake at 48 h [2, 9]: 0.09 ± 0.05 %ID/g | tissue uptake at 1 h [2, 10]: 1.02 ± 0.07 %ID/g | tissue uptake at 2 h [2, 10]: 0.95 ± 0.07 %ID/g | tissue uptake at 4 h [2, 10]: 0.68 ± 0.2 %ID/g | tissue uptake at 24 h [2, 10]: 0.09 ± 0.02 %ID/g | tissue uptake at 48 h [2, 10]: 0.09 ± 0.01 %ID/g | tissue uptake at 1 h [2, 11]: 9.47 ± 1.54 %ID/g | tissue uptake at 2 h [2, 11]: 8.29 ± 0.52 %ID/g | tissue uptake at 4 h [2, 11]: 5.35 ± 0.93 %ID/g | tissue uptake at 24 h [2, 11]: 0.39 ± 0.13 %ID/g | tissue uptake at 48 h [2, 11]: 0.14 ± 0.05 %ID/g | tissue uptake at 1 h [2, 12]: 10.3 ± 0.54 %ID/g | tissue uptake at 2 h [2, 12]: 8.89 ± 0.18 %ID/g | tissue uptake at 4 h [2, 12]: 6.02 ± 1.35 %ID/g
Structure (SMILES): CC(C)C[C@H](NC(=O)[C@H](Cc1ccc(O)c(I)c1)NC(=O)[C@H](C)NC(=O)[C@H](CCCNC(=N)N)NC(=O)[C@H](Cc1c[nH]c2ccccc12)NC(=O)[C@@H]1CCCN1C(=O)[C@H](CC(N)=O)NC(=O)[C@H](CCC(N)=O)NC(=O)[C@H](CC(=O)O)NC(=O)[C@H](CC(=O)O)NC(=O)[C@H](CS)NC(=O)[C@H](C)N)C(=O)N[C@@H](CC(=O)O)C(=O)N[C@@H](CC(C)C)C(=O)N[C@@H](CC(C)C)C(=O)N[C@@H](Cc1ccccc1)C(=O)N1CCC[C@H]1C(=O)N[C@H](C(=O)N[C@@H](CC(=O)O)C(=O)N[C@H](C(=O)N[C@@H](CC(C)C)C(=O)N[C@@H](CC(C)C)C(=O)N[C@@H](CC(C)C)C(=O)N[C@@H](CC(=O)O)C(=O)N[C@@H](CC(C)C)C(=O)N[C@@H](CC(C)C)C(=O)N[C@@H](Cc1c[nH]c2ccccc12)C(=O)N[C@@H](CCCCN)C(=O)O)[C@@H](C)O)[C@@H](C)O [125I-Var3-pHLIP] (HELM PEPTIDE1{A.C.D.D.Q.N.P.W.R.A.[O=C([C@H](Cc1ccc(O)c(I)c1)N[*:1])[*:2]].L.D.L.L.F.P.T.D.T.L.L.L.D.L.L.W.K}$$$$V2.0; N-terminus and C-terminus assumed)
